Measured values taken from patent publication US20230085307A1, “PYRIDAZINONE COMPOUND AND HERBICIDE” (NISSAN CHEMICAL CORPORATION, priority 2019, published 2023).

Assays:
late watergrass = experiment: Test Example 1: herbicidal activity, application before weed generation under submerged conditions (Table 16, symbol A); assay type: in vivo, late watergrass (Echinochloa oryzicola); details: 320 g/ha applied herbicide
Procedure, shortened: (§1)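 Emulsion formulation, water-diluted to set dose, was put onto the flooded surface (4 cm depth, alluvial soil) the same day weeds were sown and 2.5-leaf rice transplanted. After 3 weeks at 25-30 °C under glass, each species was rated 0 (≤5% kill) to 5 (≥90% kill).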

barnyard grass [1] = experiment: Test Example 5: herbicidal effect by foliage application, plastic box (Table 20, symbol H); assay type: in vivo, barnyard grass (Echinochloa crus-galli); details: foliage application, 320 g/ha, three weeks after application
Procedure, shortened: (§2)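 Sow seeds spot-wise in sterilized diluvial soil; cover with ~1.5 cm soil. Grow 14 days in greenhouse, 25° C. to 30° C. Spray foliage with emulsion diluted to predetermined amount. Rate effect after 3 weeks.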

chickweed = experiment: Test Example 5: herbicidal effect by foliage application, plastic box (Table 20, symbol P); assay type: in vivo, common chickweed (Stellaria media); details: foliage application, 320 g/ha, three weeks after application
Procedure, shortened: as §2

wild oat = experiment: Test Example 5: herbicidal effect by foliage application, plastic box (Table 20, symbol I); assay type: in vivo, wild oat (Avena fatua); details: foliage application, 320 g/ha, three weeks after application
Procedure, shortened: as §2

Japanese bulrush = experiment: Test Example 1: herbicidal activity, application before weed generation under submerged conditions (Table 16, symbol B); assay type: in vivo, Japanese bulrush (Schoenoplectus juncoides); details: 320 g/ha applied herbicide
Procedure, shortened: as §1

rice flat sedge = experiment: Test Example 3: herbicidal effect by foliage application, Wagner pot (Table 18, symbol E); assay type: in vivo, rice flat sedge (Cyperus iria); details: 320 g/ha
Procedure, shortened: (§3)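 Plants were sown in alluvial soil held under 0.1–0.5 cm standing water and grown 14 days in a greenhouse at 25–30 °C. An emulsifiable formulation, water-diluted to the set dose, was then sprayed onto the foliage, and effects were scored three weeks later using previously defined criteria.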

blackgrass = experiment: Test Example 5: herbicidal effect by foliage application, plastic box (Table 20, symbol J); assay type: in vivo, blackgrass (Alopecurus myosuroides); details: foliage application, 320 g/ha, three weeks after application
Procedure, shortened: as §2

windgrass = experiment: Test Example 5: herbicidal effect by foliage application, plastic box (Table 20, symbol L); assay type: in vivo, windgrass (Apera spica-venti); details: foliage application, 320 g/ha, three weeks after application
Procedure, shortened: as §2

redroot pigweed = experiment: Test Example 5: herbicidal effect by foliage application, plastic box (Table 20, symbol N); assay type: in vivo, redroot pigweed (Amaranthus retroflexus); details: foliage application, 320 g/ha, three weeks after application
Procedure, shortened: as §2

green foxtail = experiment: Test Example 5: herbicidal effect by foliage application, plastic box (Table 20, symbol G); assay type: in vivo, green foxtail (Setaria viridis); details: foliage application, 320 g/ha, three weeks after application
Procedure, shortened: as §2

Chinese sprangletop = experiment: Test Example 3: herbicidal effect by foliage application, Wagner pot (Table 18, symbol D); assay type: in vivo, chinese sprangletop (Leptochloa chinensis); details: 320 g/ha
Procedure, shortened: as §3

persian speedwell = experiment: Test Example 5: herbicidal effect by foliage application, plastic box (Table 20, symbol R); assay type: in vivo, Persian speedwell (Veronica persica); details: foliage application, 320 g/ha, three weeks after application
Procedure, shortened: as §2

false cleavers = experiment: Test Example 5: herbicidal effect by foliage application, plastic box (Table 20, symbol Q); assay type: in vivo, false cleavers (Galium spurium); details: foliage application, 320 g/ha, three weeks after application
Procedure, shortened: as §2

barnyard grass [2] = experiment: Test Example 3: herbicidal effect by foliage application, Wagner pot (Table 18, symbol H); assay type: in vivo, barnyard grass (Echinochloa crus-galli); details: 320 g/ha
Procedure, shortened: as §3

Italian ryegrass = experiment: Test Example 5: herbicidal effect by foliage application, plastic box (Table 20, symbol K); assay type: in vivo, Italian ryegrass (Lolium multiflorum); details: foliage application, 320 g/ha, three weeks after application
Procedure, shortened: as §2

lambsquarters = experiment: Test Example 5: herbicidal effect by foliage application, plastic box (Table 20, symbol O); assay type: in vivo, lambsquarters (Chenopodium album); details: foliage application, 320 g/ha, three weeks after application
Procedure, shortened: as §2

velvetleaf = experiment: Test Example 5: herbicidal effect by foliage application, plastic box (Table 20, symbol M); assay type: in vivo, velvetleaf (Abutilon theophrasti); details: foliage application, 320 g/ha, three weeks after application
Procedure, shortened: as §2

southern crabgrass = experiment: Test Example 5: herbicidal effect by foliage application, plastic box (Table 20, symbol F); assay type: in vivo, southern crabgrass (Digitaria ciliaris); details: foliage application, 320 g/ha, three weeks after application
Procedure, shortened: as §2

CCCCOc1ccccc1-c1sc2ccccc2c1-c1c(O)c(C)nn(C)c1=O [1-022]
Herbicidal effect on A: late watergrass (grade 0-5) (late watergrass): 2 (Herbicidal rate of 20% or more and less than 40%)
herbicidal effect grade, H: barnyard grass (barnyard grass [1]): 3 (Herbicidal rate of 40% or more and less than 70%)
herbicidal effect grade, P: chickweed (chickweed): 5 (Herbicidal rate of 90% or more (almost completely withered))
herbicidal effect grade, I: wild oat (wild oat): 0 (Herbicidal rate of 5% or less (almost no effect))
Herbicidal effect on B: Japanese bulrush (grade 0-5) (Japanese bulrush): 3 (Herbicidal rate of 40% or more and less than 70%)
herbicidal effect on E (rice flat sedge), rating 0-5 (rice flat sedge): 4 (Herbicidal rate of 70% or more and less than 90%)
herbicidal effect grade, J: blackgrass (blackgrass): 0 (Herbicidal rate of 5% or less (almost no effect))
herbicidal effect grade, L: windgrass (windgrass): 0 (Herbicidal rate of 5% or less (almost no effect))
herbicidal effect grade, N: redroot pigweed (redroot pigweed): 3 (Herbicidal rate of 40% or more and less than 70%)
herbicidal effect grade, G: green foxtail (green foxtail): 0 (Herbicidal rate of 5% or less (almost no effect))
herbicidal effect on D (Chinese sprangletop), rating 0-5 (Chinese sprangletop): 0 (Herbicidal rate of 5% or less (almost no effect))
herbicidal effect grade, R: persian speedwell (persian speedwell): 5 (Herbicidal rate of 90% or more (almost completely withered))
herbicidal effect grade, Q: false cleavers (false cleavers): 4 (Herbicidal rate of 70% or more and less than 90%)
herbicidal effect on H (barnyard grass), rating 0-5 (barnyard grass [2]): 3 (Herbicidal rate of 40% or more and less than 70%)
herbicidal effect grade, K: Italian ryegrass (Italian ryegrass): 0 (Herbicidal rate of 5% or less (almost no effect))
herbicidal effect grade, O: lambsquarters (lambsquarters): 0 (Herbicidal rate of 5% or less (almost no effect))
herbicidal effect grade, M: velvetleaf (velvetleaf): 0 (Herbicidal rate of 5% or less (almost no effect))
herbicidal effect grade, F: southern crabgrass (southern crabgrass): 0 (Herbicidal rate of 5% or less (almost no effect))
